Assay results as given in patent US8846698B2, “Pyrrolo[2,3-d]pyrimidine tropomysin-related kinase inhibitors” (Pfizer Limited, priority 2011, dated 2014).

Biological target: TRKA (Homo sapiens (Human), UniProt P04629)
Assay: Isolated TRK enzyme assay (HTRF KinEASE-TK), TRKA
Type: biochemical
Details: read-out: Trka enzyme (IC50)

TRKA, sequence (P04629 441-796): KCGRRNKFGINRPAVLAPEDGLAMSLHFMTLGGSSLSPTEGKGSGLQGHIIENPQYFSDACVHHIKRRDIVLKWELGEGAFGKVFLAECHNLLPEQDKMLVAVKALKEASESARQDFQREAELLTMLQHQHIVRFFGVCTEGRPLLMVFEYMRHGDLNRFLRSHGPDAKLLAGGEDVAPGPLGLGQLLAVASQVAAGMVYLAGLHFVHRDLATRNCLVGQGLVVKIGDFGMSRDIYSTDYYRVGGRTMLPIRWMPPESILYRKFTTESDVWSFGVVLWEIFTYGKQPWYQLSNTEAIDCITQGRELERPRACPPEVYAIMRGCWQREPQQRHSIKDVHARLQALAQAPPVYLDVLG

| SMILES | IC50 [nM] |
| --- | --- |
| Cc1c(-c2ccccc2)cnn1CC(=O)Nc1cncc(C(=O)c2cn(C(C)C)c3ncncc23)c1 [Example 149, N-{5-[(7-isopropyl-7H-pyrrolo[2,3-d]pyrimidin-5-yl)carbonyl]pyridin-3-yl}-2-(5-methyl-4-phenyl-1H-pyrazol-1-yl)acetamide] | 3570 |
| CC(C)n1cc(CC(=O)Nc2cncc(C(=O)c3cn(C(C)C)c4nc(N)ncc34)c2)c(C(F)(F)F)n1 [Example 254, N-{5-[(2-amino-7-isopropyl-7H-pyrrolo[2,3-d]pyrimidin-5-yl)carbonyl]pyridin-3-yl}-2-[1-isopropyl-3-(trifluoromethyl)-1H-pyrazol-4-yl]acetamide] | 52.6 |
| CC(C)(CO)n1cc(C(=O)c2cncc(NC(=O)Cn3cc(C(F)(F)F)cn3)c2)c2cnc(N)nc21 [Example 563, N-{5-[2-Amino-7-(2-hydroxy-1,1-dimethyl-ethyl)-7H-pyrrolo[2,3-d]pyrimidine-5-carbonyl]-pyridin-3-yl}-2-(4-trifluoromethyl-pyrazol-1-yl)-acetamide] | 3.11 |
| Cc1[nH]c2ccccc2c1CC(=O)Nc1cncc(C(=O)c2cn(C(C)C)c3ncncc23)c1 [Example 116, N-{5-[(7-isopropyl-7H-pyrrolo[2,3-d]pyrimidin-5-yl)carbonyl]pyridin-3-yl}-2-(2-methyl-1H-indol-3-yl)acetamide] | 103 |
| Cc1ccc2ccc(CC(=O)Nc3cncc(C(=O)c4cn(C(CO)CO)c5ncncc45)c3)cc2n1 [Example 275, N-[5-({7-[2-hydroxy-1-(hydroxymethyl)ethyl]-7H-pyrrolo[2,3-d]pyrimidin-5-yl}carbonyl)pyridin-3-yl]-2-(2-methylquinolin-7-yl)acetamide] | 5100 |
| CC(C)n1cc(C(=O)c2cncc(NC(=O)Cc3cnc4cccnc4c3)c2)c2cncnc21 [Example 82, N-{5-[(7-isopropyl-7H-pyrrolo[2,3-d]pyrimidin-5-yl)carbonyl]pyridin-3-yl}-2-(1,5-naphthyridin-3-yl)acetamide] | 908 |
| CC(C)(CO)n1cc(C(=O)c2cncc(NC(=O)Cc3ccc(OC(F)(F)F)cc3)c2)c2cnc(N)nc21 [Example 567, N-{5-[2-Amino-7-(2-hydroxy-1,1-dimethyl-ethyl)-7H-pyrrolo[2,3-d]pyrimidine-5-carbonyl]-pyridin-3-yl}-2-(4-trifluoromethoxy-phenyl)-acetamide] | 20.8 |
| CC(C)n1cc(C(=O)c2cncc(NC(=O)c3cnc4[nH]cnc4c3)c2)c2cncnc21 [Example 487, 3H-Imidazo[4,5-b]pyridine-6-carboxylic acid [5-(7-isopropyl-7H-pyrrolo[2,3-d]pyrimidine-5-carbonyl)-pyridin-3-yl]-amide] | 9800 |
| CC(C)n1cc(C(=O)c2cncc(NC(=O)C(CO)c3ccccc3)c2)c2cncnc21 (stereo not drawn) [Example 339, 3-hydroxy-2-phenyl-N-(5-{[7-(propan-2-yl)-7H-pyrrolo[2,3-d]pyrimidin-5-yl]carbonyl}pyridin-3-yl)propanamide] | 251 |
| Cn1cc(C(=O)c2cncc(NC(=O)COc3ccccc3)c2)c2cncnc21 [Example 332, N-{5-[(7-methyl-7H-pyrrolo[2,3-d]pyrimidin-5-yl)carbonyl]pyridin-3-yl}-2-phenoxyacetamide] | 2180 |
| CC(CO)n1cc(C(=O)c2cncc(NC(=O)Cc3cccc(C(F)(F)F)c3)c2)c2cnc(N)nc21 (single isomer, unassigned) [Example 215, N-(5-{[2-amino-7-(2-hydroxy-1-methylethyl)-7H-pyrrolo[2,3-d]pyrimidin-5-yl]carbonyl}pyridin-3-yl)-2-[3-(trifluoromethyl)phenyl]acetamide] | 4.4 |
| Cn1cc(C(=O)c2cncc(NC(=O)Nc3cccc(C(F)(F)F)c3)c2)c2cncnc21 [Example 295, 1-{5-[(7-methyl-7H-pyrrolo[2,3-d]pyrimidin-5-yl)carbonyl]pyridin-3-yl}-3-[3-(trifluoromethyl)phenyl]urea] | 31.9 |
| CC(C)n1cc(C(=O)c2cncc(NC(=O)Cc3ccccc3OC3CC3)c2)c2cncnc21 [Example 70, 2-[2-(cyclopropyloxy)phenyl]-N-{5-[(7-isopropyl-7H-pyrrolo[2,3-d]pyrimidin-5-yl)carbonyl]pyridin-3-yl}acetamide] | 22.8 |
| Cn1cc(C(=O)c2cncc(NC(=O)Cc3cc(F)ccc3F)c2)c2cncnc21 [Example 190, 2-(2,5-difluorophenyl)-N-{5-[(7-methyl-7H-pyrrolo[2,3-d]pyrimidin-5-yl)carbonyl]pyridin-3-yl}acetamide] | 820 |
| CC(C)n1cc(C(=O)c2cncc(NC(=O)c3ncccc3Cl)c2)c2cncnc21 [Example 494, 3-Chloro-pyridine-2-carboxylic acid[5-(7-isopropyl-7H-pyrrolo[2,3-d]pyrimidine-5-carbonyl)-pyridin-3-yl]-amide] | 2570 |
| CC(C)n1cc(C(=O)c2cncc(NC(=O)c3cnc4occc4c3)c2)c2cncnc21 [Example 491, Furo[2,3-b]pyridine-5-carboxylic acid [5-(7-isopropyl-7H-pyrrolo[2,3-d]pyrimidine-5-carbonyl)-pyridin-3-yl]-amide] | 1410 |
| CN(C(=O)Cc1ccc(F)cc1)c1cncc(C(=O)c2cn(C(C)(C)C)c3ncncc23)c1 [Example 540, N-[5-(7-tert-Butyl-7H-pyrrolo[2,3-d]pyrimidine-5-carbonyl)-pyridin-3-yl]-2-(4-fluoro-phenyl)-N-methyl-acetamide] | 153 |

| SMILES | IC50 [nM] |
| --- | --- |
| O=C(Cc1ccc2cccnc2c1)Nc1cncc(C(=O)c2cn(C(CO)CO)c3ncncc23)c1 [Example 272, N-(5-(7-(1,3-dihydroxypropan-2-yl)-7H-pyrrolo[2,3-d]pyrimidine-5-carbonyl)pyridin-3-yl)-2-(quinolin-7-yl)acetamide] | 697 |
| COc1cc(C(=O)Nc2cncc(C(=O)c3cn(C(C)C)c4ncncc34)c2)nc2c(C)nccc12 [Example 483, 4-Methoxy-8-methyl-1,7-naphthyridine-2-carboxylic acid [5-(7-isopropyl-7H-pyrrolo[2,3-d]pyrimidine-5-carbonyl)-pyridin-3-yl]-amide] | 118 |
| CC(C)n1cc(C(=O)c2cncc(NC(=O)Cc3cccc(OC4CC4)c3)c2)c2cncnc21 [Example 74, 2-[3-(cyclopropyloxy)phenyl]-N-{5-[(7-isopropyl-7H-pyrrolo[2,3-d]pyrimidin-5-yl)carbonyl]pyridin-3-yl}acetamide] | 1210 |
| Cn1cc(C(=O)c2cncc(NC(=O)Nc3ccc(OC(F)(F)F)cc3)c2)c2cncnc21 [Example 296, 1-{5-[(7-methyl-7H-pyrrolo[2,3-d]pyrimidin-5-yl)carbonyl]pyridin-3-yl}-3-[4-(trifluoromethoxy)phenyl]urea] | 47.7 |
| Cn1cc(C(=O)c2cncc(NC(=O)Cc3cc(F)c(F)c(F)c3)c2)c2cncnc21 [Example 187, N-{5-[(7-methyl-7H-pyrrolo[2,3-d]pyrimidin-5-yl)carbonyl]pyridin-3-yl}-2-(3,4,5-trifluorophenyl)acetamide] | 2630 |
| CC(C)n1cc(C(=O)c2cncc(NC(=O)c3nc[nH]n3)c2)c2cncnc21 [Example 424, 1H-1,2,4-Triazole-3-carboxylic acid[5-(7-isopropyl-7H-pyrrolo[2,3-d]pyrimidine-5-carbonyl)-pyridin-3-yl]-amide] | 4310 |
| Cc1n[nH]c2ncc(C(=O)Nc3cncc(C(=O)c4cn(C(C)C)c5ncncc45)c3)cc12 [Example 475, 3-Methyl-1H-pyrazolo[3,4-b]pyridine-5-carboxylic acid [5-(7-isopropyl-7H-pyrrolo[2,3-d]pyrimidine-5-carbonyl)-pyridin-3-yl]-amide] | 643 |
| CN(C)C(=O)Cn1cc(C(=O)c2cncc(NC(=O)Cc3ccc(Cl)cc3)c2)c2cncnc21 [Example 304, 2-{5-[(5-{[(4-chlorophenyl)acetyl]amino}pyridin-3-yl)carbonyl]-7H-pyrrolo[2,3-d]pyrimidin-7-yl}-N,N-dimethylacetamide] | 3900 |
| CC(C)n1cc(C(=O)c2cncc(NC(=O)c3ccc(C4(C(F)(F)F)N=N4)cc3)c2)c2cncnc21 [Example 291, N-{5-[(7-isopropyl-7H-pyrrolo[2,3-d]pyrimidin-5-yl)carbonyl]pyridin-3-yl}-4-[3-(trifluoromethyl)-3H-diaziren-3-yl]benzamide] | 3230 |
| Cc1nn(C)cc1CC(=O)Nc1cncc(C(=O)c2cn(C(C)(C)C)c3ncncc23)c1 [Example 201, N-{5-[(7-tert-butyl-7H-pyrrolo[2,3-d]pyrimidin-5-yl)carbonyl]pyridin-3-yl}-2-(1,3-dimethyl-1H-pyrazol-4-yl)acetamide] | 482 |
| Cn1cc(C(=O)c2cncc(NC(=O)Cc3c(F)cccc3F)c2)c2cncnc21 [Example 193, 2-(2,6-difluorophenyl)-N-{5-[(7-methyl-7H-pyrrolo[2,3-d]pyrimidin-5-yl)carbonyl]pyridin-3-yl}acetamide] | 3570 |
| Cc1n[nH]cc1C(=O)Nc1cncc(C(=O)c2cn(C(C)C)c3ncncc23)c1 [Example 411, 3-Methyl-1H-pyrazole-4-carboxylic acid [5-(7-isopropyl-7H-pyrrolo[2,3-d]pyrimidine-5-carbonyl)-pyridin-3-yl]-amide] | 9800 |
| CCn1cc(C(=O)Nc2cncc(C(=O)c3cn(C(C)C)c4ncncc34)c2)cn1 [Example 433, 1-Ethyl-1H-pyrazole-4-carboxylic acid [5-(7-isopropyl-7H-pyrrolo[2,3-d]pyrimidine-5-carbonyl)-pyridin-3-yl]-amide] | 246 |
| CC(C)n1cc(C(=O)c2cncc(NC(=O)Cc3cncc(Br)c3)c2)c2cncnc21 [Example 150, 2-(5-bromopyridin-3-yl)-N-{5-[(7-isopropyl-7H-pyrrolo[2,3-d]pyrimidin-5-yl)carbonyl]pyridin-3-yl}acetamide] | 51 |
| O=C(Cc1ccc(Cl)cn1)Nc1cncc(C(=O)c2cn(C3(CO)COC3)c3ncncc23)c1 [Example 301, 2-(5-chloropyridin-2-yl)-N-[5-({7-[3-(hydroxymethyl)oxetan-3-yl]-7H-pyrrolo[2,3-d]pyrimidin-5-yl}carbonyl)pyridin-3-yl]acetamide] | 428 |
| Cn1cc(C(=O)c2cncc(NC(=O)Cc3c(F)ccc(F)c3F)c2)c2cncnc21 [Example 172, N-{5-[(7-methyl-7H-pyrrolo[2,3-d]pyrimidin-5-yl)carbonyl]pyridin-3-yl}-2-(2,3,6-trifluorophenyl)acetamide] | 3840 |
